How the values were obtained:
Assay type in all cases: cell-based
SW-620 = test: NCI 60 five-dose screen SW-620; details: Homo sapiens
HCT-116 = test: NCI 60 five-dose screen HCT-116; details: Homo sapiens
TK-10 = test: NCI 60 five-dose screen TK-10; details: Homo sapiens
KM12 = test: NCI 60 five-dose screen KM12; details: Homo sapiens
HCT-15 = test: NCI 60 five-dose screen HCT-15; details: Homo sapiens
DU-145 = test: NCI 60 five-dose screen DU-145; details: Homo sapiens
MALME-3M = test: NCI 60 five-dose screen MALME-3M; details: Homo sapiens, Malme-3M
HS 578T = test: NCI 60 five-dose screen HS 578T; details: Homo sapiens
HL-60(TB) = test: NCI 60 five-dose screen HL-60(TB); details: Homo sapiens
NCI-H522 = test: NCI 60 five-dose screen NCI-H522; details: Homo sapiens
BT-549 = test: NCI 60 five-dose screen BT-549; details: Homo sapiens
OVCAR-3 = test: NCI 60 five-dose screen OVCAR-3; details: Homo sapiens
MDA-MB-435 = test: NCI 60 five-dose screen MDA-MB-435; details: Homo sapiens
A498 = test: NCI 60 five-dose screen A498; details: Homo sapiens
NCI/ADR-RES = test: NCI 60 five-dose screen NCI/ADR-RES; details: Homo sapiens
M14 = test: NCI 60 five-dose screen M14; details: Homo sapiens
CAKI-1 = test: NCI 60 five-dose screen CAKI-1; details: Homo sapiens
SK-MEL-5 = test: NCI 60 five-dose screen SK-MEL-5; details: Homo sapiens
K-562 = test: NCI 60 five-dose screen K-562; details: Homo sapiens
MCF7 = test: NCI 60 five-dose screen MCF7; details: Homo sapiens
OVCAR-5 = test: NCI 60 five-dose screen OVCAR-5; details: Homo sapiens
PC-3 = test: NCI 60 five-dose screen PC-3; details: Homo sapiens
HT29 = test: NCI 60 five-dose screen HT29; details: Homo sapiens
EKVX = test: NCI 60 five-dose screen EKVX; details: Homo sapiens
ACHN = test: NCI 60 five-dose screen ACHN; details: Homo sapiens
CCRF-CEM = test: NCI 60 five-dose screen CCRF-CEM; details: Homo sapiens
SK-MEL-2 = test: NCI 60 five-dose screen SK-MEL-2; details: Homo sapiens
HOP-92 = test: NCI 60 five-dose screen HOP-92; details: Homo sapiens
[1] = read-out: LC50 (the source's name) (converted)
[2] = read-out: LC50 (the source's name)

Compound: COc1cc(Cn2c(C(F)(F)F)cc3c(Cl)ncnc32)ccn1 [NUCC-0226694]
- GI50 (SW-620): 3.89 µM
- IC50 (SW-620): 4.9 µM
- IC (TGI) (SW-620): 16.6 µM
- CC50 (SW-620; [1]): 49 µM
- GI50 (HCT-116): 1.74 µM
- IC50 (HCT-116): 2.63 µM
- IC (TGI) (HCT-116): 4.27 µM
- CC50 (HCT-116; [1]): 15.1 µM
- GI50 (TK-10): 19.1 µM
- IC50 (TK-10): 45.7 µM
- IC (TGI) (TK-10): 46.8 µM
- CC50 (TK-10; [1]): ≥ 100 µM
- GI50 (KM12): 13.5 µM
- IC50 (KM12): 22.9 µM
- IC (TGI) (KM12): 30.2 µM
- CC50 (KM12; [1]): 69.2 µM
- GI50 (HCT-15): 3.09 µM
- IC50 (HCT-15): 3.8 µM
- IC (TGI) (HCT-15): 10 µM
- CC50 (HCT-15; [1]): 53.7 µM
- GI50 (DU-145): 1.78 µM
- IC50 (DU-145): 3.09 µM
- IC (TGI) (DU-145): 3.24 µM
- CC50 (DU-145; [1]): 5.89 µM
- GI50 (MALME-3M): 12.6 µM
- IC50 (MALME-3M): 25.7 µM
- IC (TGI) (MALME-3M): 25.7 µM
- CC50 (MALME-3M; [1]): 51.3 µM
- GI50 (HS 578T): 3.16 µM
- IC50 (HS 578T): 24.5 µM
- IC (TGI) (HS 578T): 16.6 µM
- CC50 (HS 578T; [2]): ≥ 100 µM
- GI50 (HL-60(TB)): 2.14 µM
- IC50 (HL-60(TB)): 3.39 µM
- IC (TGI) (HL-60(TB)): 7.24 µM
- CC50 (HL-60(TB); [1]): ≥ 100 µM
- GI50 (NCI-H522): 3.31 µM
- IC50 (NCI-H522): 11 µM
- IC (TGI) (NCI-H522): 15.1 µM
- CC50 (NCI-H522; [1]): 50.1 µM
- GI50 (BT-549): 1.62 µM
- IC50 (BT-549): 3.24 µM
- IC (TGI) (BT-549): 3.16 µM
- CC50 (BT-549; [1]): 6.03 µM
- GI50 (OVCAR-3): 2.34 µM
- IC50 (OVCAR-3): 4.07 µM
- IC (TGI) (OVCAR-3): 7.08 µM
- CC50 (OVCAR-3; [1]): 30.9 µM
- GI50 (MDA-MB-435): 3.24 µM
- IC50 (MDA-MB-435): 4.79 µM
- IC (TGI) (MDA-MB-435): 14.5 µM
- CC50 (MDA-MB-435; [1]): 50.1 µM
- GI50 (A498): 15.8 µM
- IC50 (A498): 33.1 µM
- IC (TGI) (A498): 30.9 µM
- CC50 (A498; [1]): 58.9 µM
- GI50 (NCI/ADR-RES): 15.1 µM
- IC50 (NCI/ADR-RES): 27.5 µM
- IC (TGI) (NCI/ADR-RES): 33.9 µM
- CC50 (NCI/ADR-RES; [1]): 74.1 µM
- GI50 (M14): 1.51 µM
- IC50 (M14): 2.69 µM
- IC (TGI) (M14): 4.17 µM
- CC50 (M14; [1]): 16.6 µM
- GI50 (CAKI-1): 7.24 µM
- IC50 (CAKI-1): 13.8 µM
- IC (TGI) (CAKI-1): 20.4 µM
- CC50 (CAKI-1; [1]): 46.8 µM
- GI50 (SK-MEL-5): 3.89 µM
- IC50 (SK-MEL-5): 6.92 µM
- IC (TGI) (SK-MEL-5): 14.1 µM
- CC50 (SK-MEL-5; [1]): 38 µM
- GI50 (K-562; K562): 2.34 µM
- IC50 (K-562; K562): 2.69 µM
- IC (TGI) (K-562; K562): 100 µM
- CC50 (K-562; K562, read-out: LC50 (the source's name)): ≥ 100 µM
- GI50 (MCF7): 5.13 µM
- IC50 (MCF7): 7.24 µM
- IC (TGI) (MCF7): 20 µM
- CC50 (MCF7; [1]): 61.7 µM
- GI50 (OVCAR-5): 15.8 µM
- IC50 (OVCAR-5): 29.5 µM
- IC (TGI) (OVCAR-5): 32.4 µM
- CC50 (OVCAR-5; [1]): 66.1 µM
- GI50 (PC-3): 5.5 µM
- IC50 (PC-3): 9.55 µM
- IC (TGI) (PC-3): 20.9 µM
- CC50 (PC-3; [1]): 58.9 µM
- GI50 (HT29; HT-29): 14.1 µM
- IC50 (HT29; HT-29): 21.9 µM
- IC (TGI) (HT29; HT-29): 41.7 µM
- CC50 (HT29; HT-29, read-out: LC50 (the source's name) (converted)): ≥ 100 µM
- GI50 (EKVX): 7.94 µM
- IC50 (EKVX): 17 µM
- IC (TGI) (EKVX): 24 µM
- CC50 (EKVX; [1]): 63.1 µM
- GI50 (ACHN): 14.5 µM
- IC50 (ACHN): 25.1 µM
- IC (TGI) (ACHN): 28.8 µM
- CC50 (ACHN; [1]): 57.5 µM
- GI50 (CCRF-CEM): 3.16 µM
- IC50 (CCRF-CEM): 5.37 µM
- IC (TGI) (CCRF-CEM): 18.6 µM
- CC50 (CCRF-CEM; [2]): ≥ 100 µM
- GI50 (SK-MEL-2): 10 µM
- IC50 (SK-MEL-2): 21.9 µM
- IC (TGI) (SK-MEL-2): 22.4 µM
- CC50 (SK-MEL-2; [1]): 51.3 µM
- GI50 (HOP-92): 10.7 µM
- IC50 (HOP-92): 33.9 µM
- IC (TGI) (HOP-92): 30.2 µM
- CC50 (HOP-92; [1]): 85.1 µM

Source: patent publication US20240109903A1, “SUBSTITUTED HETEROCYCLES FOR TREATING CANCER” (Northwestern University, priority 2022, published 2024)
